From PubChem BioAssay (NCI)
“And” between values parts separate entries of the source, which are not always exact repeats. Equal entries are not always repeated.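 Results reflect a 48-hour exposure of cells in 96-well plates to compound at five concentrations. Abbreviation: GI50, concentration required for 50% inhibition of growth. TGI: total growth inhibition.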

Assays:
Experiment in all cases: inhibition of tumour cell growth, NCI panel, 48 h
[1] = system: 786-0 renal
[2] = system: A498 renal
[3] = system: A549 NSCLC
[4] = system: ACHN renal
[5] = system: BT-549 breast
[6] = system: CAKI-1 renal
[7] = system: CCRF-CEM leukemia
[8] = system: COLO 205 colon
[9] = system: DU-145 prostate
[10] = system: EKVX NSCLC
[11] = system: HCC-2998 colon
[12] = system: HCT-116 colon
[13] = system: HCT-15 colon
[14] = system: HL-60(TB) leukemia
[15] = system: HOP-92 NSCLC
[16] = system: HS 578T breast
[17] = system: IGROV1 ovarian
[18] = system: K-562 leukemia
[19] = system: KM12 colon
[20] = system: LOX IMVI melanoma
[21] = system: M14 melanoma
[22] = system: MALME-3M melanoma
[23] = system: MCF7 breast
[24] = system: MDA-MB-231 breast
[25] = system: MDA-MB-435
[26] = system: MDA-N
[27] = system: MOLT-4 leukemia
[28] = system: NCI-H226 lung
[29] = system: NCI-H460 lung
[30] = system: NCI-H522 lung
[31] = system: NCI/ADR-RES ovarian
[32] = system: OVCAR-3 ovarian
[33] = system: OVCAR-4 ovarian
[34] = system: OVCAR-5 ovarian
[35] = system: OVCAR-8 ovarian
[36] = system: PC-3 prostate
[37] = system: RPMI-8226 leukemia
[38] = system: RXF 393 renal
[39] = system: SF-268 CNS
[40] = system: SF-295 CNS
[41] = system: SF-539 CNS
[42] = system: SK-MEL-2 melanoma
[43] = system: SK-MEL-28 melanoma
[44] = system: SK-MEL-5 melanoma
[45] = system: SN12C renal
[46] = system: SNB-19 CNS
[47] = system: SNB-75 CNS
[48] = system: SR leukemia
[49] = system: SW-620 colon
[50] = system: T-47D breast
[51] = system: TK-10 renal
[52] = system: U251 CNS
[53] = system: UACC-257 melanoma
[54] = system: UACC-62 melanoma
[55] = system: UO-31 renal
[56] = system: HOP-62 NSCLC
[57] = system: HT29 colon
[58] = system: NCI-H23 lung
[59] = system: SK-OV-3 ovarian
[60] = system: DMS 114 small cell lung
[61] = system: DMS 273 small cell lung
[62] = system: KM20L2 colon
[63] = system: M19-MEL melanoma
[64] = system: SNB-78 CNS

COc1cc(OCc2ccc3nc(-c4ccccc4)c(N)nc3c2)cc(OC)c1OC
TGI [1]: 81.2 µM
TGI [2]: 73.8 µM
TGI [3]: 61.2 µM
TGI [4]: 63.8 µM
TGI [5]: 49 µM
TGI [6]: 71.4 µM
TGI [7]: 61.9 µM
TGI [8]: 30.1 µM
TGI [9]: 77.8 µM
TGI [10]: 50.2 µM
TGI [11]: > 100 µM
TGI [12]: 21.1 µM
TGI [13]: 39.7 µM
TGI [14]: 32.4 µM
TGI [15]: 50 µM
TGI [16]: 78.3 µM
TGI [17]: 55.9 µM
TGI [18]: > 100 µM
TGI [19]: 36.7 µM
TGI [20]: 29.7 µM
TGI [21]: 29.3 µM
TGI [22]: 32.4 µM
TGI [23]: 56.8 µM
TGI [24]: 68.9 µM
TGI [25]: 51.2 µM
TGI [26]: 28.8 µM
TGI [27]: 28.8 µM
TGI [28]: 50.4 µM
TGI [29]: 39.7 µM
TGI [30]: 37.7 µM
TGI [31]: 49.6 µM
TGI [32]: 42.1 µM
TGI [33]: 34.6 µM
TGI [34]: 55.3 µM
TGI [35]: 72.3 µM
TGI [36]: 45.4 µM
TGI [37]: 31.3 µM
TGI [38]: 77 µM
TGI [39]: > 100 µM
TGI [40]: 68.7 µM
TGI [41]: 44.2 µM
TGI [42]: 43.9 µM
TGI [43]: 49 µM
TGI [44]: 24 µM
TGI [45]: > 100 µM
TGI [46]: > 100 µM
TGI [47]: 59.7 µM
TGI [48]: 43.8 µM
TGI [49]: > 100 µM
TGI [50]: 42.5 µM
TGI [51]: 50.3 µM
TGI [52]: > 100 µM
TGI [53]: 49.7 µM
TGI [54]: 28.2 µM
TGI [55]: 34.6 µM

COc1cc2cc(C(=O)N3CC(CCl)c4c3cc(NC(=O)C(C)(C)c3ccccc3[N+](=O)[O-])c3ccccc43)[nH]c2c(OC)c1OC (configuration not stated)
TGI [1]: > 600 µM
GI50 [2]: 59.1 µM
TGI [3]: > 600 µM
GI50 [4]: 2.63 µM
GI50 [5]: 26.1 µM
TGI [5]: 30.4 µM and 213 µM
GI50 [6]: 78.5 µM
GI50 [7]: 51.2 µM
GI50 [8]: 204 µM
TGI [9]: 28.2 µM
GI50 [10]: 127 µM
TGI [11]: 33.2 µM
TGI [12]: > 600 µM
GI50 [13]: 13.2 µM
GI50 [14]: 37.1 µM
TGI [56]: 0.862 µM
GI50 [15]: 222 µM
GI50 [16]: 270 µM
GI50 [57]: 14.5 µM
TGI [57]: 50 µM and 203 µM
GI50 [17]: 89.6 µM
GI50 [18]: 17.9 µM
GI50 [19]: 48.2 µM
TGI [20]: 6.86 µM
GI50 [21]: 6.24 µM
TGI [21]: 9.11 µM and 33.2 µM
GI50 [22]: 103 µM
GI50 [23]: 16.1 µM
GI50 [24]: > 600 µM
GI50 [25]: 91.7 µM
GI50 [26]: 76.7 µM
GI50 [27]: 33.7 µM
GI50 [28]: 118 µM
TGI [28]: 50 µM and 281 µM
GI50 [58]: 8.67 µM
GI50 [29]: 0.825 µM
TGI [29]: 1.64 µM and 15.5 µM
GI50 [30]: 38.4 µM
GI50 [31]: 11.3 µM
TGI [32]: 222 µM
GI50 [33]: 62.1 µM
GI50 [34]: 119 µM
GI50 [35]: 6.58 µM
GI50 [36]: 19.4 µM
TGI [36]: 35.9 µM and 206 µM
TGI [37]: > 600 µM
GI50 [38]: 6.25 µM
TGI [38]: 5.9 µM and 19.9 µM
GI50 [39]: 19.5 µM
GI50 [40]: 19.2 µM
GI50 [41]: 6.55 µM
TGI [41]: 14.5 µM and 74.9 µM
GI50 [42]: 110 µM
GI50 [43]: 86.7 µM
GI50 [44]: 11.3 µM
TGI [44]: 7.81 µM and 35.1 µM
GI50 [59]: 70 µM
GI50 [45]: 146 µM
GI50 [46]: 303 µM
GI50 [47]: 61.7 µM
TGI [48]: > 600 µM
GI50 [49]: 16.9 µM
GI50 [50]: 61.5 µM
GI50 [51]: 18.3 µM
TGI [52]: > 600 µM
GI50 [53]: 18.9 µM
TGI [53]: 14.1 µM and 75.6 µM
GI50 [54]: 25.4 µM
GI50 [55]: 26.2 µM

CN(C)c1ccc(/C=C/C=C\C2=CC(=C\C=C/C=C3C=CC(=[N+](C)C)C=C3)/Sc3ccccc32)cc1
TGI [1]: > 100 µM
TGI [2]: > 100 µM
TGI [3]: > 100 µM
TGI [8]: 78.3 µM
TGI [60]: 24.4 µM
TGI [61]: > 100 µM
TGI [10]: > 100 µM
TGI [12]: > 100 µM
TGI [13]: > 100 µM
TGI [14]: > 100 µM
TGI [56]: > 100 µM
TGI [57]: > 100 µM
TGI [18]: > 100 µM
TGI [19]: > 100 µM
TGI [62]: > 100 µM
TGI [20]: 64.1 µM
TGI [21]: 27.5 µM
TGI [63]: 35 µM
TGI [22]: > 100 µM
TGI [27]: > 100 µM
TGI [28]: > 100 µM
TGI [29]: > 100 µM
TGI [32]: > 100 µM
TGI [34]: > 100 µM
TGI [35]: > 100 µM
TGI [37]: > 100 µM
TGI [38]: 32.7 µM
TGI [39]: > 100 µM
TGI [40]: > 100 µM
TGI [41]: > 100 µM
TGI [42]: > 100 µM
TGI [43]: 28.9 µM
TGI [44]: > 100 µM
TGI [59]: > 100 µM
TGI [45]: > 100 µM
TGI [46]: > 100 µM
TGI [47]: > 100 µM
TGI [64]: > 100 µM
TGI [49]: > 100 µM
TGI [51]: > 100 µM
TGI [53]: > 100 µM
TGI [54]: > 100 µM
TGI [55]: > 100 µM
